Measurements from US7776873B2, “Method for treating damage to gastric mucosa” (Yuhan Corporation, priority 2005, dated 2010).

Legend:
[1] = tested on: indomethacin-induced gastric mucosal lesions; assay: Treatment effect on NSAID-induced gastropathy; assay type: in vivo, Sprague Dawley male rats; conditions: rats, 5 mg/kg and 10 mg/kg given 8 hours after indomethacin 40 mg/kg, for one hour, FIG. 9
Method: Six-week old specific-pathogen-free (SPF) Sprague Dawley male rats (Charles River, Tokyo, Japan) were used for experiments. The rats were fed a sterilized commercial pellet diet (Biogenomics Co., Seoul, Korea), given sterile water ad libitum, and housed in air-conditioned biohazard room with a 12-h light:12-h dark cycle. The rats were food-deprived 24 hours, and then treated with 1 ml of a solution of indomethacin (40 mg/kg) in 0.5% CMC (carboxymethylcellulose) via oro-gastric tube. 8 hours after the indomethacin treatment, the rats were treated with 1 ml of a solution of revaprazan (5 mg/kg and 10 mg/kg) in 0.5% CMC for one hour, and the degree of gastropathy was determined in the same manner as in Example 8.

[2] = tested on: indomethacin-induced gastric mucosal lesions; assay: Preventive effect on in vivo indomethacin-induced gastric injury; design: species or system Sprague-Dawley male rats; conditions: rats, 10 mg/kg via oro-gastric tube prior to indomethacin 40 mg/kg for 12 hrs, FIG. 3A
From the text: Six-week old specific-pathogen-free (SPF) Sprague-Dawley male rats (Charles River, Tokyo, Japan) were used for experiments. The rats were fed a sterilized commercial pellet diet (Biogenomics Co., Seoul, Korea), given sterile water ad libitum, and housed in air-conditioned biohazard room with a 12-h light:12-h dark cycle. The rats were divided into four groups; indomethacin-only treatment group, revaprazan-indomethacin treatment group, ethanol-only treatment group and revaprazan-ethanol treatment group. The rats were food-deprived 24 hours, and then administered with 10 mg/kg revaprazan suspended in 0.5% CMC (carboxymethylcellulose) via oro-gastric tube prior to exposure to either indomethacin (40 mg/kg for 12 hrs) or absolute ethanol (6 ml/kg for 1 hr). The stomachs of the rats belonging to the groups treated with indomethacin were excised and the degree of gastric mucosal lesions was observed (see FIG. 3A). Referring to FIG. 3A, in the indomethacin-only treatment group, increased hemorrhagic lesions in gastric mucosa were observed visually. […] Also, the stomachs of the rats belonging to the ethanol treatment groups were excised and the degree of gastric mucosal lesions was observed (see FIG. 3B).

[3] = tested on: heat-shock proteins, HO-1, HSP27, HSP70; assay: Expression of heat-shock proteins in indomethacin-treated cells (Western blotting); assay type: cell-based, rat; conditions: RGM-1 cells, 5, 10 and 25 uM for 16 hours, then indomethacin 0.5 uM 16 hours, FIG. 7
Method: To measure expression of heat-shock proteins, HO-1, HSP27, HSP70, cells were pretreated with concentrations of 5, 10, and 25 μM revaprazan, and then treated with indomethacin (a NSAID, 0.5 μM).
The rat gastric mucosal (RGM-1, RIKEN cell bank, Japan) cells were seeded in culture dishes at 2×10^6 cells/100 mm^2 and cultured in DMEM-F12 (Gibco BRL, Grand Island, N.Y., U.S.A.), supplemented with 100 units/mL penicillin, 100 ug/mL streptomycin, and 10% FBS (Fetal Bovine Serum). RGM-1 cells were pretreated with revaprazan (5, 10, and 25 uM) and cultured 37° C. for 16 hours. The culture media were removed and the cells were washed three times with PBS (137 mM NaCl, 2.7 mM KCl, 10 mM Na2HPO4, and 2 mM KH2PO4). A solution of indomethacin in sterilized water was added to the cells to reach a final concentration of 0.5 uM, and the cells were incubated at 37° C. for 16 hours. After incubation, the cells were resuspended in a lysis buffer (20 mM Tris-Cl (pH 7.5), 150 mM NaCl, 1% Triton X-100, 1 mM EDTA, and protease inhibitor cocktail (Roche, Mannheim, Germany)). The suspension was sonicated for approximately 10 seconds, four times using the BIORUPTOR (Cosmo Bio, Koto-ku, Tokyo), and centrifuged at 4° C., 12000 rpm for 30 minutes. […]

Cc1nc(Nc2ccc(F)cc2)nc(N2CCc3ccccc3C2C)c1C (stereo not shown) [revaprazan, 5,6-dimethyl-2-(4-fluorophenylamino)-4-(1-methyl-1,2,3,4-tetrahydroisoquinolin-2-yl)pyrimidine]
gastric mucosal hemorrhagic lesions after treatment [1]: remarkably improved
number of erosions and ulcers [1]: reduced
indomethacin-induced gastric injury [2]: completely inhibited
expression of heat-shock proteins [3]: stimulating expression
